Assay results taken from patent publication US20240174662A1, “SMALL MOLECULE INHIBITORS OF SALT INDUCIBLE KINASES” (Janssen Biotech, Inc., priority 2021, published 2024).
pIC50: −log10 of the molar value.

Tests used:
SIK2 [1] = target: T1, SIK2 (Homo sapiens (Human), UniProt Q9H0K1); experiment: SIK2 Enzymatic Assay Version 1 (ADP Glo); type: biochemical; details: 80 μM ATP and 70 μM HDAC5tide final, ADPGlo luminescence
Protocol: All steps were performed at room temperature. Compounds were pre-plated onto an assay plate using an Echo acoustic dispenser (Labcyte, E550 or E555) at 20 nL per well. Enzyme prepared in Assay Buffer at 0.6 nM (2× final concentration) was added at 2 μL per well using the Multidrop Combi (Thermo Fisher-used for all additions in this assay) to the assay plate, spun for 1 min at 800-850 rpm (Allegra 6KR Beckman Coulter centrifuge), and incubated with compound for 30 minutes. Assay Buffer containing 160 μM ATP and 140 μM HDAC5tide (2× of final concentration for each substrate) was added at 2 μL per well to the assay plate and then spun as above and incubated for 4 hours.
One column of wells was dedicated to a no-peptide negative control (containing only ATP). ADPGlo Reagent (prepared and aliquoted as per manufacturer instructions) was then added at 2 μL per well, spun and incubated for 40 min. ADPGlo Detection (prepared and aliquoted as per manufacturer instructions) was added at 2 μL per well to the assay plate, which was spun and incubated for at least 30 min. The plate was then read on the Pherastar (BMG Labtech) using a luminescence read. Gain was set by the 0.1 mM concentration of ADP wells in the ADP/ATP standard curve plate generated as per manufacturer instructions.

SIK2 [2] = target: T1, SIK2; experiment: SIK2 Enzymatic Assay Version 2 (High ATP); type: biochemical; details: 3 mM ATP and 200 μM HDAC5tide final, ADP-Glo Max luminescence
Summary of the method: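 Luminescent ADP-Glo Max read-out: depletion reagent 2 h, then detection reagent 1 h. Before the reaction, compounds were incubated 30 min with enzyme added at 6 nM (twice final concentration), with all steps at room temperature.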

T1 sequence (Q9H0K1 whole entry, species assumed): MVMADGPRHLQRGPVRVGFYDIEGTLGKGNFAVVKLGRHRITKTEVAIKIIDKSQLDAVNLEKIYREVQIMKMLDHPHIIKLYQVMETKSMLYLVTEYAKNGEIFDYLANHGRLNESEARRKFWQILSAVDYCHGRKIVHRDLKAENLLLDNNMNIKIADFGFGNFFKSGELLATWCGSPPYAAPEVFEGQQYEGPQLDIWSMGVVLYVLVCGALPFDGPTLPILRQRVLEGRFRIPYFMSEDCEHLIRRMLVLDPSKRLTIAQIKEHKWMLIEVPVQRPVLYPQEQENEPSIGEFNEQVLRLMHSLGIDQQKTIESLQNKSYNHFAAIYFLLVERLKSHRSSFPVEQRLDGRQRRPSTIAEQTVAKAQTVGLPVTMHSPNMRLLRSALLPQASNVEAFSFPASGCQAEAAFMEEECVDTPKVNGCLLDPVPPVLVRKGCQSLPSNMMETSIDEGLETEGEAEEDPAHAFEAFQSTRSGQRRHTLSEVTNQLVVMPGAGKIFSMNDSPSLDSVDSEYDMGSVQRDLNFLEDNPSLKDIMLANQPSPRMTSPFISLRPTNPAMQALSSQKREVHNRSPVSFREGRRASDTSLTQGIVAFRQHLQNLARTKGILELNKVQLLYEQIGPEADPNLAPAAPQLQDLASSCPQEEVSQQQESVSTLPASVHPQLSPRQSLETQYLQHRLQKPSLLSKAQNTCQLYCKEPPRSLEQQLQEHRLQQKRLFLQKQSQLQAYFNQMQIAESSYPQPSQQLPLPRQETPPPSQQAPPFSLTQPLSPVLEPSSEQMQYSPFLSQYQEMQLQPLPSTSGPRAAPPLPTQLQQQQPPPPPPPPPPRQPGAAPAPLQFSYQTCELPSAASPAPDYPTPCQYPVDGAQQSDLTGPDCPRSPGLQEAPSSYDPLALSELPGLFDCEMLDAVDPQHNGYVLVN

| SMILES | pIC50 (SIK2 [1]) | pIC50 (SIK2 [2]) |
| --- | --- | --- |
| Cc1oncc1-c1ccn2nc(NC(=O)C3CC3)cc2c1 [Example 486, N-[5-(5-methylisoxazol-4-yl)pyrazolo[1,5-a]pyridin-2-yl]cyclopropanecarboxamide] | 7.40 | – |
| CN1CCO[C@H](COc2cnn(C)c2-c2ccn3nc(NC(=O)C4CC4)cc3c2)C1 [Example 487] | 7.89 | 6.48 |
| CN1CC[C@@H](Oc2cnn(C)c2-c2ccn3nc(NC(=O)C4CC4)cc3c2)C1 [Example 488, N-[5-[2-methyl-4-[(3R)-1-methylpyrrolidin-3-yl]oxy-pyrazol-3-yl]pyrazolo[1,5-a]pyridin-2-yl]cyclopropanecarboxamide] | 8.19 | 6.37 |
